Target: T1, ERα (Homo sapiens, UniProt P03372)
T1 construct: host or cells: MCF7
T1 sequence (P03372 1-595): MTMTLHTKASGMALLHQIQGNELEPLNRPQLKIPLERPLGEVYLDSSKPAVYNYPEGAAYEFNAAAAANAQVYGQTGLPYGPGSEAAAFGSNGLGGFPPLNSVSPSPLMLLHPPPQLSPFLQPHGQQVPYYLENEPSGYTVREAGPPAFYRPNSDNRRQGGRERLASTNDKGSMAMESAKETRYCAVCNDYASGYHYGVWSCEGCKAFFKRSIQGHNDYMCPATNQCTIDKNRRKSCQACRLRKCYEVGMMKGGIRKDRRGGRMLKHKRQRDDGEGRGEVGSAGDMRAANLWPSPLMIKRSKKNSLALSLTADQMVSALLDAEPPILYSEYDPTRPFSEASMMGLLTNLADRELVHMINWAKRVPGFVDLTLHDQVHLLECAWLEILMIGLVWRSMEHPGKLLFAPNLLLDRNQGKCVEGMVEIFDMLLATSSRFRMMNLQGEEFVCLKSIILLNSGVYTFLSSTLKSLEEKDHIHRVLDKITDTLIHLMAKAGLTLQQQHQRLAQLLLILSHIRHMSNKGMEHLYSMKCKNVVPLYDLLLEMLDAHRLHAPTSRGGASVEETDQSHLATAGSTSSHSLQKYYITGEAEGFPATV
Experiment: Estrogen receptor degradation activity (breast cancer cell ERα in cell western assay)
Type: cell-based
Conditions: MCF7 cells, 0.3 μM, 4 hours, % of ERα levels decrease relative to fulvestrant
Description: Said test involves measuring the in vitro degradation activity of the compounds of the Table 1a.
The measurements of the degradation activities were made using a breast cancer cell ERα in cell western assay as described hereunder.
MCF7 cells (ATCC) were seeded in 384 wells microplate (collagen coated) at a concentration of 10000 cells/30 μL per well in red phenol free MEM alpha medium (invitrogen) containing 5% charcoal dextran striped FBS. The following day, 9 points serial 1:5 dilution of each compound was added to the cells in 2.5p L at final concentrations ranging from 0.3-0.0000018 μM (in table 2), or 0.1 μM for fulvestrant (using as positive control). At 4 hours post compound addition the cells were fixed by adding 25 μL of formalin (final concentration 5% formalin containing 0.1% triton) for 10 minutes at room temperature and then washed twice with PBS. Then, 50 μL of LI-COR blocking buffer containing 0.1% Triton was added to plate for 30 minutes at room temperature. LI-COR blocking buffer was removed and cells were incubated overnight at cold room with 50 μL anti-ER rabbit monoclonal antibody (Thermo scientific MA1-39540) diluted at 1:1000 in LI-COR blocking buffer containing 0.1% tween-20. Wells which were treated with blocking buffer but no antibody were used as background control. Wells were washed twice with PBS (0.1% tween-20) and incubated at 37° C. for 60 minutes in LI-COR (0.1% tween-20) containing goat anti-rabbit antibody Alexa 488 (1:1000) and Syto-64 a DNA dye (2 μM final concentration). Cells were then washed 3 times in PBS and scanned in ACUMEN explorer (TTP-Labtech). Integrated intensities in the green fluorescence and red fluorescence were measured to determine the levels of ERα and DNA respectively.
The degradation activity with respect to estrogen receptors in this test is given by the concentration which degrades 50% of the estrogen receptor (or IC50) in nM.
The % of ERα levels decrease were determined as follows: % inhibition=100*(1−(sample−fulvestrant: DMSO−fulvestrant)).

SMILES	% Degradation At 0.3 μM
O=C(O)c1ccc2c(c1)CCCC(c1ccccc1C(F)(F)F)=C2c1ccc(CC2CCN(CCC(F)F)C2)cc1 (stereo not drawn) [Compound 33, 9-(4-((1-(3,3-difluoropropyl)pyrrolidin-3-yl)methyl)phenyl)-8-(2-(trifluoromethyl)phenyl)-6,7-dihydro-5H-benzo[7]annulene-3-carboxylic acid]	76%
Cl.Oc1ccc2c(c1)CCCC(c1ccc(Cl)cc1Cl)=C2c1ccc(CC2CCN(CCC(F)F)C2)cc1 (single isomer, unassigned; isomer 1) [Compound 31, 8-(2,4-dichlorophenyl)-9-(4-((1-(3,3-difluoropropyl)pyrrolidin-3-yl)methyl)phenyl)-6,7-dihydro-5H-benzo[7]annulen-3-ol hydrochloride, Isomer 1]	73%
Cc1c(C2=C(c3ccc(CC4CCN(CCC(F)F)C4)cc3)c3ccc(C(=O)O)cc3CCC2)cccc1C(F)(F)F.Cl (single isomer, unassigned; isomer 1) [Compound 28, 9-(4-((1-(3,3-difluoropropyl)pyrrolidin-3-yl)methyl)phenyl)-8-(2-methyl-3-(trifluoromethyl)phenyl)-6,7-dihydro-5H-benzo[7]annulene-3-carboxylic acid hydrochloride, Isomer 1]	78%
O=C(O)c1ccc2c(c1)CCCC(c1ccc(F)cc1F)=C2c1ccc(CC2CCN(CCC(F)F)C2)cc1 (single isomer, unassigned; isomer 1) [Compound 10, 8-(2,4-difluorophenyl)-9-(4-((1-(3,3-difluoropropyl)pyrrolidin-3-yl)methyl)phenyl)-6,7-dihydro-5H-benzo[7]annulene-3-carboxylic acid, Isomer 1]	84%
Cl.O=C(O)c1ccc2c(c1)CCCC(c1ccc(F)cc1Cl)=C2c1ccc(CC2CCN(CCC(F)F)C2)cc1 (single isomer, unassigned; isomer 1) [Compound 27, 8-(2-chloro-4-fluorophenyl)-9-(4-((1-(3,3-difluoropropyl)pyrrolidin-3-yl)methyl)phenyl)-6,7-dihydro-5H-benzo[7]annulene-3-carboxylic acid hydrochloride, Isomer 1]	73%
O=C(O)C(F)(F)F.O=C(O)c1ccc2c(c1)CCCC(c1ccc(Cl)cc1Cl)=C2c1ccc(CC2(F)CCN(CCCF)C2)cc1 (single isomer, unassigned; isomer 2) [Compound 22, 8-(2,4-dichlorophenyl)-9-(4-((3-fluoro-1-(3-fluoropropyl)pyrrolidin-3-yl)methyl)phenyl)-6,7-dihydro-5H-benzo[7]annulene-3-carboxylic acid, 2,2,2-trifluoroacetic acid, Isomer 2]	48%
Cl.O=C(O)c1ccc2c(c1)OCCC(c1ccc(Cl)cc1Cl)=C2c1ccc(CC2CCN(CCCF)C2)cc1 (single isomer, unassigned; isomer 1) [Compound 7, 4-(2,4-dichlorophenyl)-5-(4-((1-(3-fluoropropyl)pyrrolidin-3-yl)methyl)phenyl)-2,3-dihydrobenzo[b]oxepine-8-carboxylic acid hydrochloride, Isomer 1]	80%
Cc1cc(F)cc(C)c1C1=C(c2ccc(CC3CCN(CCC(F)F)C3)cc2)c2ccc(C(=O)O)cc2CCC1.Cl (single isomer, unassigned; isomer 1) [Compound 32, 9-(4-((1-(3,3-difluoropropyl)pyrrolidin-3-yl)methyl)phenyl)-8-(4-fluoro-2,6-dimethylphenyl)-6,7-dihydro-5H-benzo[7]annulene-3-carboxylic acid hydrochloride, Isomer 1]	76%
Oc1ccc2c(c1)SCCC(c1ccccc1Cl)=C2c1ccc(CC2CCN(CCCF)C2)cc1 (single isomer, unassigned; isomer 1) [Compound 44, 4-(2-chlorophenyl)-5-(4-((1-(3-fluoropropyl)pyrrolidin-3-yl)methyl)phenyl)-2,3-dihydrobenzo[b]thiepin-8-ol, Isomer 1]	70%

More lines, now with the values ahead:

% Degradation At 0.3 μM	SMILES
90%	Cc1c(F)cccc1C1=C(c2ccc(CC3CCN(CCCF)C3)cc2)c2ccc(C(=O)O)cc2CCC1.Cl (single isomer, unassigned; isomer 1) [Compound 20, 8-(3-fluoro-2-methylphenyl)-9-(4-((1-(3-fluoropropyl)pyrrolidin-3-yl)methyl)phenyl)-6,7-dihydro-5H-benzo[7]annulene-3-carboxylic acid hydrochloride, Isomer 1]
73%	Cl.O=C(O)c1ccc2c(c1)CCCC(c1cccc(Cl)c1)=C2c1ccc(CC2CCN(CCCF)C2)cc1 (single isomer, unassigned; isomer 1) [Compound 40, 8-(3-chlorophenyl)-9-(4-((1-(3-fluoropropyl)pyrrolidin-3-yl)methyl)phenyl)-6,7-dihydro-5H-benzo[7]annulene-3-carboxylic acid hydrochloride, Isomer 1]
46%	O=C(O)c1ccc2c(c1)CCCC(c1ccc(Cl)cc1Cl)=C2c1ccc(C[C@@H]2CCN(CCCF)C2)cc1 [Compound 24, 8-(2,4-dichlorophenyl)-9-(4-((1-(3-fluoropropyl)pyrrolidin-3-yl)methyl)phenyl)-6,7-dihydro-5H-benzo[7]annulene-3-carboxylic acid, (R) Isomer]
80%	O=C(O)c1ccc2c(c1)CCCC(c1ccc(Cl)cc1Cl)=C2c1ccc(CC2CCN(CCC(F)F)C2)cc1 (single isomer, unassigned; isomer 1) [Compound 9, 8-(2,4-dichlorophenyl)-9-(4-((1-(3,3-difluoropropyl)pyrrolidin-3-yl)methyl)phenyl)-6,7-dihydro-5H-benzo[7]annulene-3-carboxylic acid, Isomer 1]
84%	Cc1cc(F)ccc1C1=C(c2ccc(CC3CCN(CCCF)C3)cc2)c2ccc(C(=O)O)cc2CCC1 (single isomer, unassigned; isomer 1) [Compound 17, 8-(4-fluoro-2-methylphenyl)-9-(4-((1-(3-fluoropropyl)pyrrolidin-3-yl)methyl)phenyl)-6,7-dihydro-5H-benzo[7]annulene-3-carboxylic acid, Isomer 1]
76%	Cl.O=C(O)c1ccc2c(c1)CCCC(c1cccc(C(F)(F)F)c1)=C2c1ccc(CC2CCN(CCCF)C2)cc1 (single isomer, unassigned; isomer 1) [Compound 39, 9-(4-((1-(3-fluoropropyl)pyrrolidin-3-yl)methyl)phenyl)-8-(3-(trifluoromethyl)phenyl)-6,7-dihydro-5H-benzo[7]annulene-3-carboxylic acid hydrochloride, Isomer 1]
86%	O=C(O)c1ccc2c(c1)CCCC(c1ccc(F)cc1C(F)(F)F)=C2c1ccc(CC2CCN(CCCF)C2)cc1 (single isomer, unassigned; isomer 1) [Compound 18, 8-(4-fluoro-2-(trifluoromethyl)phenyl)-9-(4-((1-(3-fluoropropyl)pyrrolidin-3-yl)methyl)phenyl)-6,7-dihydro-5H-benzo[7]annulene-3-carboxylic acid, Isomer 1]
88%	Cc1c(Cl)cccc1C1=C(c2ccc(CC3CCN(CCCF)C3)cc2)c2ccc(C(=O)O)cc2CCC1 (single isomer, unassigned; isomer 1) [Compound 15, 8-(3-chloro-2-methylphenyl)-9-(4-((1-(3-fluoropropyl)pyrrolidin-3-yl)methyl)phenyl)-6,7-dihydro-5H-benzo[7]annulene-3-carboxylic acid, Isomer 1]
84%	Cc1cc(F)cc(C)c1C1=C(c2ccc(CC3CCN(CCCF)C3)cc2)c2ccc(C(=O)O)cc2CCC1.Cl (single isomer, unassigned; isomer 1) [Compound 35, 8-(4-fluoro-2,6-dimethylphenyl)-9-(4-((1-(3-fluoropropyl)pyrrolidin-3-yl)methyl)phenyl)-6,7-dihydro-5H-benzo[7]annulene-3-carboxylic acid hydrochloride, Isomer 1]
